According to ChEMBL document CHEMBL3507680, “University of Dundee, Gates Library screen for HepG2 cell viability”:

Test: Human HepG2 cell viability assay in 384 well format
Format: toxicity, cell-based
Design: dose 125 nL, time 70.5 hour; cytotoxicity at 70.5 h: concentration not given beside the values
Conditions: HepG2 cells, read-out: Inhibition

CC(C)C1=NOC2(CCN(C(=O)C3CCCC3)CC2)C1
cytotoxicity at 70.5 h: -11.9%

COc1ccccc1-c1cc(C(=O)N(C)C)nc2c1cnn2C
cytotoxicity at 70.5 h: -11.4%

NCCC(=O)N1CCC2(CC1)CN(C(=O)Cc1cccc(Cl)c1)CCO2
cytotoxicity at 70.5 h: -15.5%

NCC(=O)N1CCC2(CC1)CN(C(=O)Cc1ccc(Cl)cc1)CCO2
cytotoxicity at 70.5 h: -14.9%

O=C(C1CCCC1)N1CC2(CCCN(C3COC3)C2)Cc2ccccc21 (configuration not stated)
cytotoxicity at 70.5 h: -15.4%

O=C(C1CCCC1)N1CC2(CCN(C3COC3)C2)Cc2ccccc21 (configuration not stated)
cytotoxicity at 70.5 h: -10.8%

CC(C)(C)c1nnc2n1C(C(=O)N1CCN(c3ncccn3)CC1)CC2 (configuration not stated)
cytotoxicity at 70.5 h: -11.2%

CC(C)(C)c1nnc2n1C(C(=O)N1CCOCC1)CC2 (configuration not stated)
cytotoxicity at 70.5 h: -14.7%

CC(C)(C)c1nnc2n1C(C(=O)N1CCCC1)CC2 (configuration not stated)
cytotoxicity at 70.5 h: -12.7%

O=C(N1CCCC1)N1CCn2c(nnc2C2CCCN2)C1 (configuration not stated)
cytotoxicity at 70.5 h: -9.61%

O=C(Nc1ccccc1)N1CCn2c(nnc2C2CCCN2)C1 (configuration not stated)
cytotoxicity at 70.5 h: -9.71%

CC(C)NC(=O)c1cc(-c2ccc(S(C)(=O)=O)cc2)nc2c1cnn2C
cytotoxicity at 70.5 h: -13.7%

Cc1cc(C(=O)NCC(F)(F)F)c2c(C3CCCN3)noc2n1 (configuration not stated)
cytotoxicity at 70.5 h: -7.21%

Cc1cc(C(=O)NCc2cccs2)c2c(C3CCCN3)noc2n1 (configuration not stated)
cytotoxicity at 70.5 h: -6.49%

O=C1CC2(CCN(C(=O)C3CCCCC3)C2)Nc2ccccc2N1 (configuration not stated)
cytotoxicity at 70.5 h: -9.46%

c1c[nH]c2nc(C3CCCNC3)nc-2c1 (configuration not stated)
cytotoxicity at 70.5 h: -13.7%

Cn1nc(C2CCCN2)c2c(C(=O)NCC(F)(F)F)cc(C3CC3)nc21 (configuration not stated)
cytotoxicity at 70.5 h: 17.1%

CN(C)C(=O)c1nc(-c2ccc(S(C)(=O)=O)cc2)c2cnccn12
cytotoxicity at 70.5 h: -6.88%

CS(=O)(=O)c1ccc(-c2nc(C(=O)N3CCCC3)n3ccccc23)cc1
cytotoxicity at 70.5 h: -8.24%

CN(C)C(=O)N1CCN(c2ccc(Cl)nn2)C(=O)C1
cytotoxicity at 70.5 h: -7.53%

O=C(N1CCOCC1)N1CCN(c2ccc(Cl)nn2)C(=O)C1
cytotoxicity at 70.5 h: -6.24%

CC(C)C(=O)N1Cc2ccccc2CC2(CCCCN2C)C1 (configuration not stated)
cytotoxicity at 70.5 h: -10.2%

C[C@H](C(=O)N1Cc2ccccc2CC2(CCCN2C)C1)c1ccccc1 (some centres not stated)
cytotoxicity at 70.5 h: -5.49%

CS(=O)(=O)N1CC2(CCCN(C3COC3)C2)Cc2ccccc21 (configuration not stated)
cytotoxicity at 70.5 h: -3.97%

CS(=O)(=O)N1CC2(CCN(C3COC3)C2)Cc2ccccc21 (configuration not stated)
cytotoxicity at 70.5 h: -4.95%

CS(=O)(=O)N1CC2(CCCN(CC3CC3)C2)Cc2ccccc21 (configuration not stated)
cytotoxicity at 70.5 h: -3.95%

O=C1Nc2ccccc2CN(CC2CC2)C12CCNC2 (configuration not stated)
cytotoxicity at 70.5 h: -3.48%

O=C1NCc2ccccc2CC12CCN(Cc1ccncc1Cl)C2 (configuration not stated)
cytotoxicity at 70.5 h: -3.37%

O=C(c1ccc(Cl)s1)N1CCC2(COc3ncccc3S(=O)(=O)N2)C1 (configuration not stated)
cytotoxicity at 70.5 h: -8.51%

O=C(c1ccncc1)N1CCC2(COc3ncccc3S(=O)(=O)N2)C1 (configuration not stated)
cytotoxicity at 70.5 h: -5.87%

O=C(c1ccccn1)N1CCC2(COc3ncccc3S(=O)(=O)N2)C1 (configuration not stated)
cytotoxicity at 70.5 h: -5.57%

O=C(c1ccccn1)N1CCC2(CNS(=O)(=O)c3cnccc3O2)C1 (configuration not stated)
cytotoxicity at 70.5 h: 17.6%

CC(=O)N1CCCCC1c1nnc2n1CCNC2 (configuration not stated)
cytotoxicity at 70.5 h: 17.5%

CC(C)CCN1CCC2(CNS(=O)(=O)c3cccnc3O2)C1 (configuration not stated)
cytotoxicity at 70.5 h: 26.8%

O=S1(=O)NCC2(CCN(Cc3ccc(Cl)s3)C2)Oc2ncccc21 (configuration not stated)
cytotoxicity at 70.5 h: 17.2%

O=S1(=O)NCC2(CCN(Cc3ccncc3)CC2)Oc2ncccc21
cytotoxicity at 70.5 h: 23.1%

CC(C)NC(=O)C1CCc2nnc(CNC(=O)c3cccnc3)n21 (configuration not stated)
cytotoxicity at 70.5 h: -2%

N#Cc1ccc(SCCC(=O)Nc2ccc(CC(N)=O)cc2)cc1
cytotoxicity at 70.5 h: 6.57%

COC(=O)C1CN(Cc2cc(F)ccc2Br)CCO1 (configuration not stated)
cytotoxicity at 70.5 h: -3.09%

NC(=O)C(NC1CCN(CC2CCCCC2)CC1)c1ccc(F)cc1 (configuration not stated)
cytotoxicity at 70.5 h: -9.96%

N#Cc1ccc(SCCC(=O)NC(N)=O)cc1
cytotoxicity at 70.5 h: -12.4%

CSCCC(=O)N1CCN(CC(O)C(C)(C)C)CC1 (configuration not stated)
cytotoxicity at 70.5 h: 24.8%

CCCS(=O)(=O)CC(=O)Nc1ccsc1
cytotoxicity at 70.5 h: 7.39%

CS(=O)(=O)CCC(=O)Nc1ccsc1
cytotoxicity at 70.5 h: -14.4%

CCN(CC)S(=O)(=O)CC(=O)Nc1ccsc1
cytotoxicity at 70.5 h: -14.5%

CN1CCN(C(=O)C2(NC(N)=O)CCCCC2)Cc2ccccc21
cytotoxicity at 70.5 h: -7.76%

O=C(NC1CC1)c1cnc2n1CCCC2
cytotoxicity at 70.5 h: 6.87%

N#CCc1ccc(NC(=O)N[C@H](CO)Cc2ccc(O)cc2)cc1
cytotoxicity at 70.5 h: -9.07%

Cc1ccc(CNc2ccn(CCC(N)=O)n2)c(Br)c1
cytotoxicity at 70.5 h: 8.15%

COC(=O)[C@@H]1C[C@@H](O)CN1Cc1ccn(-c2ccc(F)cc2)n1
cytotoxicity at 70.5 h: -10.3%

CCC(C)(CC(=O)OC)NCc1c(C)noc1C (configuration not stated)
cytotoxicity at 70.5 h: -4.55%

CCc1ccc(C(=O)NC2CCCN(c3ccn(C)n3)C2=O)o1 (configuration not stated)
cytotoxicity at 70.5 h: 9.2%

CN(Cc1cc(Br)cn1C)C(=O)Cc1cccc(O)c1
cytotoxicity at 70.5 h: -3.37%

COCCN1CCN(Cc2coc(-c3ccccc3Cl)n2)CC1
cytotoxicity at 70.5 h: -10.2%

CCN(CC(=O)NC)C(=O)c1sc(Cc2ccccc2)nc1C
cytotoxicity at 70.5 h: -11.7%

CCn1ccnc1CN1CCN(C(C)C)CC1C (configuration not stated)
cytotoxicity at 70.5 h: -3.75%

CCC1CN(CCNS(C)(=O)=O)c2ccccc2O1 (configuration not stated)
cytotoxicity at 70.5 h: -2.49%

CCC1CN(CCCNS(C)(=O)=O)c2ccccc2O1 (configuration not stated)
cytotoxicity at 70.5 h: -4.06%

CNC(=O)NC(=O)C(C)N1CCN(C2CCCC2)CC1 (configuration not stated)
cytotoxicity at 70.5 h: -4.93%

Cc1cc(C(=O)N2CCN(C(=O)CCC3CCCCC3)CC2)n(C)n1
cytotoxicity at 70.5 h: -18.7%

O=C(CS(=O)(=O)Cc1ccc(Br)cc1F)Nc1cn[nH]c1
cytotoxicity at 70.5 h: 4.02%

Cc1ccc(F)cc1S(=O)(=O)NCc1cccc(CS(C)(=O)=O)c1
cytotoxicity at 70.5 h: -6.95%

O=C(Cn1cccn1)NCC1CCCN(Cc2ccccc2)C1 (configuration not stated)
cytotoxicity at 70.5 h: -20.2%

CCNC(=O)C(C)NC(=O)Nc1ccccc1Cl (configuration not stated)
cytotoxicity at 70.5 h: -6.58%

CS(=O)(=O)NC1CCN(C(=O)c2cc3ccccc3s2)C1 (configuration not stated)
cytotoxicity at 70.5 h: -22.9%

CCOC(=O)CN(CC(F)(F)F)C(=O)c1nc(C)n2ccccc12
cytotoxicity at 70.5 h: -15.3%

Cn1c(CCNC(=O)Nc2cn[nH]c2)nc2ccc(F)cc21
cytotoxicity at 70.5 h: -1.73%

CC(C)n1nccc1NC(=O)NCCc1nc2ccc(F)cc2n1C
cytotoxicity at 70.5 h: -11%

Cc1ccc(C(=O)NCC(O)c2ccc(Cl)s2)c(=O)[nH]1 (configuration not stated)
cytotoxicity at 70.5 h: -23.1%

Cc1cc(C(=O)NCC(O)c2ccc(Cl)s2)c(C)o1 (configuration not stated)
cytotoxicity at 70.5 h: -10.3%

O=c1[nH]c(C2CCOC2)nc2ccc(Br)cc12 (configuration not stated)
cytotoxicity at 70.5 h: -2.39%

O=S(=O)(N1CCN(CC2CC2)CC1)N1CCCC1c1ccco1 (configuration not stated)
cytotoxicity at 70.5 h: -5.9%

Cc1nc(CN2CCOC(c3ccc(Cl)cc3)C2)oc1C (configuration not stated)
cytotoxicity at 70.5 h: -7.95%

Cc1nc(CN2CCCC2Cn2ccnc2C(C)C)nc2ccccc12 (configuration not stated)
cytotoxicity at 70.5 h: 19.9%

Cc1cc(C2CCCN(Cc3cccnc3)C2)n[nH]1 (configuration not stated)
cytotoxicity at 70.5 h: 47.5%

CS(=O)(=O)NC1CCN(Cc2coc(-c3ccc(Cl)cc3)n2)CC1
cytotoxicity at 70.5 h: 7.7%

CN(Cc1ccsc1)C(=O)c1nc(N2CCCC2)ncc1Cl
cytotoxicity at 70.5 h: -6.35%

O=C(c1nc(N2CCCC2)ncc1Cl)N1CCN(Cc2ccsc2)CC1
cytotoxicity at 70.5 h: 29%

CC(C)CN1CCC(NC(=O)N(C)Cc2csc3ccccc23)CC1
cytotoxicity at 70.5 h: -3.08%

Cc1cc(C)n(C2CN(c3nc(-c4ccncc4)nc4c3CCC4)C2)n1
cytotoxicity at 70.5 h: -8.99%

O=C(Nc1ccccc1F)NC1(CO)CCOCC1
cytotoxicity at 70.5 h: -12.1%

CNC(=O)Cc1ccccc1NC(=O)N[C@H]1c2ccccc2C[C@H]1O
cytotoxicity at 70.5 h: -13.7%

CC(C)Oc1ccccc1CNC(=O)N(C)C(C)CS(C)(=O)=O (configuration not stated)
cytotoxicity at 70.5 h: 16.1%

N#Cc1ccc(NCc2cccnc2N2CCC(C(N)=O)CC2)cn1
cytotoxicity at 70.5 h: -7.33%

COc1ccccc1CCNC(=O)N(C)C(C)CS(C)(=O)=O (configuration not stated)
cytotoxicity at 70.5 h: 24.3%

CN(C)C(=O)c1ccccc1NC(=O)N[C@@H]1c2ccccc2C[C@@H]1O
cytotoxicity at 70.5 h: 0.722%

O=C(c1cc(C2CC2)nc2onc(-c3ccccc3)c12)N1CC[C@H](O)C1
cytotoxicity at 70.5 h: -4.91%

O=C(c1cc(C2CC2)nc2onc(-c3ccccc3)c12)N1CC(O)C1
cytotoxicity at 70.5 h: 16.9%

CC(C)(C)OC(=O)N[C@H]1CCN(c2cncc(Br)c2)C1
cytotoxicity at 70.5 h: 23.7%

Cc1c(Br)cccc1CSc1nnc(CO)n1C
cytotoxicity at 70.5 h: 14%

COC(=O)C(NC(=O)c1cc(C)ccc1C)c1cccnc1 (configuration not stated)
cytotoxicity at 70.5 h: -0.114%

COC(=O)C(NC(=O)c1cc(F)cc(F)c1)c1cccnc1 (configuration not stated)
cytotoxicity at 70.5 h: -8.87%

CCC(C)C(=O)N(Cc1ccccn1)C1CC1 (configuration not stated)
cytotoxicity at 70.5 h: 25.9%

O=C(C1CCCN(c2nc3ccccc3cc2CO)C1)N1CCCC1 (configuration not stated)
cytotoxicity at 70.5 h: 20.7%

Cc1ccc(CNC(CCO)C2CCCCC2)nc1 (configuration not stated)
cytotoxicity at 70.5 h: -1.61%

Cc1ncccc1CNC(CCO)C1CCCCC1 (configuration not stated)
cytotoxicity at 70.5 h: 1.16%

O=C(CNC1(CCO)CCOCC1)Nc1ccc(F)cc1F
cytotoxicity at 70.5 h: 10.9%

Cc1nc(CN2CCCCC2Cn2cccn2)nc2ccccc12 (configuration not stated)
cytotoxicity at 70.5 h: -5.42%

Cn1nc(C(=O)NCCc2ccc(OC3CCCC3)cc2)ccc1=O
cytotoxicity at 70.5 h: 12.1%

COc1ccc(COCC(=O)N2CCC(c3nncn3C)CC2)cc1
cytotoxicity at 70.5 h: -12.3%

CCc1nnc2n1CCN(C(=O)CCc1ccc(C)c(Cl)c1)C2
cytotoxicity at 70.5 h: -1.97%

N#Cc1ccc(N2CCC(OCCc3ccccc3)CC2)nc1
cytotoxicity at 70.5 h: -13.8%

COC(=O)COc1nc(C(C)C)no1
cytotoxicity at 70.5 h: -10.1%

CN(C1CCN(C(=O)NCCc2ccc(F)cc2F)CC1)S(C)(=O)=O
cytotoxicity at 70.5 h: -5.3%

COc1ccc(C(=O)CCC(=O)NCc2c(C)noc2C)cc1F
cytotoxicity at 70.5 h: 23.7%

COc1ccc(CNCC2CN(C3CC3)CCO2)cc1OC (configuration not stated)
cytotoxicity at 70.5 h: -7.17%

Cn1cnnc1C1CCN(C(=O)COCc2ccccc2Cl)CC1
cytotoxicity at 70.5 h: -11.8%

CCc1n[nH]c(C2CN(C(=O)CCOCC(F)(F)F)CCO2)n1 (configuration not stated)
cytotoxicity at 70.5 h: -12.9%

O=C(CN1CC(n2cccn2)C1)NCC1(c2ccccc2)CCC1
cytotoxicity at 70.5 h: 13.6%

c1ncn(CCNC2CCCN(Cc3noc(C4CC4)n3)C2)n1 (configuration not stated)
cytotoxicity at 70.5 h: -11.2%

CC(NC(=O)Nc1ccncc1)c1ccc2c(c1)CC(=O)N2 (configuration not stated)
cytotoxicity at 70.5 h: -7.01%

O=C(NCCCN1CCN(c2ncccn2)CC1)Nc1ccccn1
cytotoxicity at 70.5 h: -2.48%

NC(=O)CC1CCN(C(=O)c2cnc(-c3ccccc3F)s2)CC1
cytotoxicity at 70.5 h: -22.8%

Cc1cc(N2CCc3c(nc(C(C)C)n3C)C2)nc(N)n1
cytotoxicity at 70.5 h: -10.6%

N#CCCN(Cc1cccnc1)C(=O)c1ccc(OCC2CC2)cc1
cytotoxicity at 70.5 h: -4.18%

OC(CN1CCN(CC(F)F)CC1)c1ccc(Br)cc1 (configuration not stated)
cytotoxicity at 70.5 h: 1.14%

COc1cc(CNCC2CN(C3CC3)CCO2)cc(OC)c1 (configuration not stated)
cytotoxicity at 70.5 h: -2.94%
